The text below walks through data of article PMC9198986, “Controlling Doxorubicin Release from a Peptide Hydrogel through Fine-Tuning of Drug–Peptide Fiber Interactions” (Biomacromolecules, 2022).

Where no end group is shown, it is not given here.

For one series, the system named is 3T3 murine fibroblasts. Description: 3T3 fibroblast viability under hydrogel inserts (PicoGreen dsDNA). It counts as cell-based, mouse. Conditions: non-loaded 14 mM hydrogel in insert above 3T3 cells; for cell viability with non-loaded hydrogels: over 48 h, PicoGreen dsDNA. On the procedure: 3T3 murine fibroblasts were seeded (1.5 × 10^4 cells cm^–2) in 12-well cell culture plates and 1.5 mL of DMEM supplemented with 10% FBS added per well. 400 μl of hydrogels (14 mM) with and without Dox (240 μM) were plated within 12-well cell culture plate inserts (ThinCert, Greiner Bio-One, pore size 1 μm) and placed above the cells. At selected time points, cells were retrieved from the cell culture wells, and the amount of double-stranded DNA (dsDNA) content was measured using PicoGreen dsDNA assay (Life Technologies, Carlsbad, CA, USA) following the manufacturer’s protocol.
Finally, we confirmed that the Dox released from the hydrogels was still active by investigating its effect on 3T3 mouse fibroblasts. This was achieved by culturing the fibroblasts in 2D in cell culture wells and placing the hydrogels (loaded and non-loaded with Dox) in inserts equipped with porous membranes above the cells (see schematics in Figure 6). This experimental setup was used to avoid a direct contact between the hydrogels and the cells but still allow the drug to diffuse from the hydrogels into the cell culture media. Dox is known to affect cell proliferation and viability via DNA intercalation and inhibition of topoisomerase II.[24],[25] Therefore, at the selected time points, the effect of Dox on fibroblasts viability was evaluated by measuring the total amount of double-stranded DNA (dsDNA), which is directly proportional to the number of live cells present.

Series [1] is described as follows: Gels biodegradability: fraction of intact peptide after incubation in 50% FBS (RP-HPLC). It counts as in vitro ADME, bovine. The following applies: 14 mM hydrogel, 37 °C; for level of degradation up to 12 h: first 12 h; for susceptibility to enzymatic degradation, rank: up to 72 h. On the procedure:
Peptide hydrogels (14 mM) were incubated in either PBS or 50% FBS ddH2O solution at 37 °C. At selected time points (2, 5, 10, 24, 48, and 72 h), the gels were disassembled by dilution to 1 mg mL^–1 in a 1% trifluoroacetic acid (TFA) water/acetonitrile (50/50 v/v) solution. Reversed phase-high-performance liquid chromatography (RP-HPLC) analyses were conducted at 25 °C on an Ultimate 3000 HPLC system (Dionex) equipped with a variable wavelength UV detector (wavelength used 210 nm) and a gradient pump. Separation was performed on a Phenomenex Jupiter 4μ Proteo column 90A° (250 × 4.66 mm) fitted with a 300 Guard Cartridge (4.3 × 10 mm). A flow rate of 1 mL min^–1 was used for all separations. The mobile phase consisted of a mixture of water: TFA(0.1%)—solvent A and acetonitrile/TFA(0.1%)—solvent B. An elution gradient of 90% solvent A/10% solvent B to 30% solvent A/70% solvent B over 45 min was used. 100 μL of sample aliquots was injected into the column using an ACC-3000 autosampler. Data were analyzed using Chromoleon 6.80 software. The peptide stability was expressed as a fraction of intact peptide present in the sample at sampling time t using the following equation [drawing 1] 1 where AUCPBS (t) and AUCFBS (t) are the intact peptide peak areas under the HPLC curves obtained at the sampling time t for hydrogels incubated with PBS and 50% FBS ddH2O solutions, respectively.
We also examined the susceptibility of these peptide hydrogels to enzymatic degradation by incubating them in a 50 FBS/50 PBS media mixture. At the selected time points, the samples were homogenized (release buffer + remaining hydrogel), and the fraction of intact, that is, nondegraded peptide was estimated via HPLC. FBS contains a wide array of proteases and other enzymes that will degrade proteins and peptides. […] Dox release was also measured using a 50 FBS/50 PBS mixture as release media. […] From 24 h onward, similar release profiles were obtained in the presence and absence of FBS, probably due to the fact that by then most of the Dox has been released, and the supernatant release media is reaching saturation (Figure S5).

As for FEFEFKFE [FE], the “cell viability with non-loaded hydrogels” value with 3T3 murine fibroblasts is reported as “good cell viabilities”. In addition, the “hydrogel degradation at later times” value in series [1] (>24 h, RP-HPLC) is on record as “more substantial”. The “level of degradation up to 12 h” value in series [1] (RP-HPLC) is “low levels of degradation”.

In the case of FEFKFEFK [F8], the “cell viability with non-loaded hydrogels” value with 3T3 murine fibroblasts is given as “good cell viabilities”. Moreover, the “level of degradation” value in series [1] (RP-HPLC) is reported as “minimal degradation”.

For the sequence FEFKFEFKK [F8K], the “cell viability with non-loaded hydrogels” value in the series on 3T3 murine fibroblasts was “good cell viabilities”. Also, in series [1] (RP-HPLC), the “level of degradation” value is “minimal degradation” and the “susceptibility to enzymatic degradation, rank” value is reported as “least susceptible”.

Consider FKFEFKFK [FK], for which the “dsDNA detected after 48 h as % of the amount at t = 0” value in the series with 3T3 murine fibroblasts (DMEM 10% FBS, 48 h, PicoGreen) turned out to be 40%. The “cell viability with non-loaded hydrogels” value in the series on 3T3 murine fibroblasts is “some level of cytotoxicity”. The “level of degradation up to 12 h” value in series [1] (RP-HPLC) is “low level of degradation”.

KFEFKFEFKK [KF8K]: the “cell viability with non-loaded hydrogels” value in the series on 3T3 murine fibroblasts is “good cell viabilities”. The sequence also gave a peptide degraded in series [1] (after 5 h, RP-HPLC UV 210 nm, intact peak area vs PBS incubation) of approximately 40%. Moreover, in series [1] (RP-HPLC), the “susceptibility to enzymatic degradation, rank” value is “most susceptible”.
